Assay results taken from patent publication US20120122791A1, “SUBSTRATE FOR CARTILAGE CULTIVATION USING ARTIFICIAL COLLAGEN, AND METHOD FOR CARTILAGE REGENERATION TREATMENT USING THE SUBSTRATE” (JNC CORPORATION, priority 2009, published 2012).

Assays:
type 2 collagen mRNA = experiment: Type 2 collagen mRNA amount in cartilage cells by addition of artificial collagen aqueous solution (real-time PCR); type: cell-based, New Zealand white rabbits; conditions: relative to 0% defined as 1
Protocol: (§1) Shoulder joints and knee joints were extirpated from 5 New Zealand white rabbits (male, 8- to 9 week-old), and only a cartilage layer was excised and sampled with a surgical knife. After washing with a sterilized PBS solution, pronase was added to 25 ml of Dulbecco's Modified Eagle's medium+gentacin (25 μg/ml) at a concentration of 0.4% (W/V), and incubation was performed at 37° C. for 2 hours. The solution was supplemented with collagenase at a concentration of 0.025% (W/V), and incubated at 37° C. overnight. The resulting solution was washed to collect cartilage cells. After that, the cartilage cells were seeded into a dish with a diameter of 90 mm at 1 to 2×10^6 cells/dish, and a medium exchange was performed once every 3 days. At the time point where the cells became confluent, subcultivation was performed only once. The following experiments were performed by using cells which had been subcultivated once. Further, the composition of a cultivation medium is as described below.
(§2) Cartilage cells in a semi-confluent state were detached from a dish by a tripsin-EDTA solution treatment, supplemented with a cultivation medium, and then washed by centrifugation. After that, the cells were seeded into a 12-well plate at 3×10^5 cells/well, and cultivation was started under conditions of 37° C. and 5% CO2.
(§3) At 24 hours after the start of the cultivation, a 1% (W/V) artificial collagen aqueous solution was diluted with a cultivation medium to prepare 0.10, 0.20, 0.30, 0.40, and 0.50% (W/V) artificial collagen aqueous solutions. Then, cultivation was performed for 4, 7, 14, and 21 days. It should be noted that a 0% (W/V) artificial collagen aqueous solution was used as a control.
(§4) After the completion of the above-mentioned cultivation, the cartilage cells were collected, and RNA extraction was performed by using RNeasy (registered trademark) Mini Kit (QIAGEN). A reverse transcription reaction was performed by using QuantiTect (registered trademark) Reverse Transcription Kit (QIAGEN). To be more specific, Real-time PCR was performed by the following method.
(§5) The model used for Real-time PCR was ABI PRISM 7000 (Applied Biosystems), and the reagents used were Real-time PCR Master Mix (TOYOBO) and Pre-Developed TaqMan & reg; Assay Reagents Eukaryotic 18S rRNA (Applied Biosystems), TaqMan & reg; Probe kit (Applied Biosystems).
(§6) At 50° C. for 2 minutes, at 95° C. for 10 minutes (at 95° C. for 15 seconds, at 60° C. for 1 minute)×40 cycles.

cartilage cells = experiment: Proteoglycan production ability of cartilage cells (Na2 35SO4 incorporation) by addition of artificial collagen aqueous solution; type: cell-based, New Zealand white rabbits; conditions: 7 days, vs 0% control
Protocol: as §1
as §2, with “and” for “and then”, “6-well” for “12-well”, “1.5×10^6 cells/well” for “3×10^5 cells/well,”, “cultivated” for “cultivation was started”
At 24 hours after the start of the cultivation, a 1% (W/V) artificial collagen aqueous solution was diluted with a cultivation medium to prepare 0.10, 0.20, 0.30, 0.40, and 0.50% (W/V) artificial collagen aqueous solutions. The artificial collagen aqueous solutions were allowed to act on the cells for an additional 7 days, and further supplemented with 10 μCi/ml Na2^35SO4 to perform cultivation for the last 24 hours. A medium exchange was performed once every 3 days. It should be noted that a 0% (W/V) artificial collagen aqueous solution was used as a control.
After the completion of the above-mentioned cultivation, the cells were washed with a fresh cultivation medium, and a lysis buffer (4 M GuHCl, 0.05 M NaAC, pH 6.0) supplemented with protease inhibitors (0.1 M 6-aminohexanoic acid, 0.005 M benzamidine hydrochloride, 0.01 M Nae EDTA, 0.01 M N-ethylmaleimide, and 0.001 M phenylmethyl sulfonyl fluoride) was added into each well. The cells were extracted at 4° C. for 4 hours, and centrifuged at 15000 rpm at 4° C. for 20 minutes.
The cells were eluted with an elution buffer (4 M GuHCl, 0.05 M Na acetate, 0.1 M Na sulfate, and 0.5% Triton X-10 (pH 7.5)) by using a PD-10 pre-packed column (GE Healthcare Bio-Sciences Ltd.) to fractionate samples. To each of the fractionated samples, ethanol and a scintillator were added and mixed, and the radioactivity content (cpm) was measured with a liquid scintillation counter. Further, the DNA amount of each of the samples used in this case was measured with a Hoechst 33258 dye to determine a DNA value expressed as cpm/mg.

aggrecan mRNA = experiment: Aggrecan mRNA amount in cartilage cells by addition of artificial collagen aqueous solution (real-time PCR); type: cell-based, New Zealand white rabbits; conditions: relative to 0% defined as 1
Protocol: as §1, §2, §3, §4, §5, §6

cartilage defect model = experiment: Cartilage regeneration by intraarticular administration in cartilage defect model (modified ICRS score, Safranin-0 staining, type 2 collagen immunostaining); type: in vivo, New Zealand white domestic rabbits; conditions: for macroscopic observation of knee joints: collected Week 7; for Safranin-0-stained area ratio compared to control group / Safranin-0 stained area compared to control group / type 2 collagen antibody-immunostained area compared to control group / type 2 collagen antibody-immunostained area ratio compared to control group: intraarticular
Protocol: A cartilage defect with a diameter of 5 mm was made on the patellofemoral joint of each of 18 knees of 9 New Zealand white domestic rabbits (22 week-old, 3.4 to 3.8 kg) after anesthesia, and further, a wound was sutured to prepare a cartilage defect model (Week 0). The 18 knees were divided into 3 groups, and on Week 1, Week 3, and Week 5, physiological saline was administered for a control group, and an intraarticular injection (0.1 ml/kg) was performed for an artificial collagen aqueous solution administration group. After that, knee joints were collected on Week 7. The ICRS score in Table 4 below is an evaluation method generally used when cartilage grafting to a cartilage defect is performed. The inventors of the present invention adopted, as an evaluation method in the case of administering a medicament without performing cartilage grafting, a modified ICRS score, which is an evaluation method involving using two items of “Degree of defect repair” and “Macroscopic appearance” and performing evaluation with a total score of 0 to 8. […] As recognized from the result of modified ICRS score described in FIG. 12, cartilage regeneration could be achieved by the intraarticular administration of the artificial collagen aqueous solution as the substrate for cartilage cultivation of the present invention. It should be noted that the results with a modified ICRS score are expressed as an average of scores of 6 knees for the control group, an average of 6 knees for the 0.1% (W/V) group, and an average of 6 knees for the 0.5% (W/V) group. In addition, a Mann-Whitney U test was used for statistics. […] The stained areas of the 0.1% (W/V) artificial collagen administration group and the 0.5% (W/V) artificial collagen administration group were larger compared to the stained area of the control group. In particular, a proteoglycan was present in a large amount. In addition, the stained area ratios of the 0.1% (W/V) artificial collagen administration group and the 0.5% (W/V) artificial collagen administration group were larger compared to the stained area ratio of the control group. […] The stained areas of the 0.1% (W/V) artificial collagen administration group and the 0.5% (W/V) artificial collagen administration group were larger compared to the stained area of the control group. In addition, the stained area ratios of the 0.1% (W/V) artificial collagen administration group and the 0.5% (W/V) artificial collagen administration group were larger compared to the stained area ratio of the control group.

For “Poly(Tripeptide-6) [artificial collagen aqueous solution]”, the “type 2 collagen mRNA expression” value (type 2 collagen mRNA; Day 4, 0.10% (W/V)) was “significantly enhanced”, the “type 2 collagen mRNA expression” value (type 2 collagen mRNA; Day 7, 0.40% (W/V)) was “lowered” and the “type 2 collagen mRNA expression” value (type 2 collagen mRNA; Day 7, 0.50% (W/V)) was “lowered”. For the same substance, the “type 2 collagen mRNA expression” value (type 2 collagen mRNA; Day 21, 0.40% (W/V)) was “lowered”, the “type 2 collagen mRNA expression” value (type 2 collagen mRNA; Day 21, 0.50% (W/V)) was “lowered” and the proteoglycan production (cartilage cells; 0.10% (W/V)) was “significantly enhanced”. For the same substance, the proteoglycan production (cartilage cells; 0.20% (W/V)) was “significantly enhanced”, the proteoglycan production (cartilage cells; 0.30% (W/V)) was “significantly enhanced” and the proteoglycan production (cartilage cells; 0.40% (W/V)) was “significantly enhanced”. For the same substance, the proteoglycan production (cartilage cells; 0.50% (W/V)) was “significantly enhanced”, the “aggrecan mRNA amount” value (aggrecan mRNA; Day 4, the respective concentrations (0.10 to 0.50% (W/V))) was “no significant change” and the “aggrecan mRNA amount” value (aggrecan mRNA; Day 7, the respective concentrations (0.10 to 0.50% (W/V))) was “no significant change”. The “aggrecan mRNA amount” value (aggrecan mRNA; Day 21, 0.20% (W/V)) was “significantly lowered”, the “aggrecan mRNA amount” value (aggrecan mRNA; Day 21, 0.30% (W/V)) was “significantly lowered” and the “aggrecan mRNA amount” value (aggrecan mRNA; Day 21, 0.40% (W/V)) was “significantly lowered”. The “aggrecan mRNA amount” value (aggrecan mRNA; Day 21, 0.50% (W/V)) was “significantly lowered”, the “modified ICRS score vs control group” value (cartilage defect model; 0.1% (W/V), intraarticular 0.1 ml/kg on Week 1, 3, 5, Week 7, Mann-Whitney U test) was “significant difference” and the “macroscopic observation of knee joints” value (cartilage defect model; 0.1% (W/V), intraarticular 0.1 ml/kg on Week 1, 3, 5) was “many knee joints have smooth surfaces”. The “Safranin-0-stained area ratio compared to control group” value (cartilage defect model; 0.1% (W/V), Week 7) was “larger”, the “Safranin-0 stained area compared to control group” value (cartilage defect model; 0.1% (W/V), Week 7) was “larger” and the “type 2 collagen antibody-immunostained area compared to control group” value (cartilage defect model; 0.1% (W/V), Week 7) was “larger”. The “type 2 collagen antibody-immunostained area ratio compared to control group” value (cartilage defect model; 0.1% (W/V), Week 7) was “larger”, the “macroscopic observation of knee joints” value (cartilage defect model; 0.5% (W/V), intraarticular 0.1 ml/kg on Week 1, 3, 5) was “many sparse fissures” and the “Safranin-0-stained area ratio compared to control group” value (cartilage defect model; 0.5% (W/V), Week 7) was “larger”. For the same substance, the “Safranin-0 stained area compared to control group” value (cartilage defect model; 0.5% (W/V), Week 7) was “larger”, the “type 2 collagen antibody-immunostained area compared to control group” value (cartilage defect model; 0.5% (W/V), Week 7) was “larger” and the “type 2 collagen antibody-immunostained area ratio compared to control group” value (cartilage defect model; 0.5% (W/V), Week 7) was “larger”.
